Experimental data published in patent publication US20100227841A1, “Patient populations and treatment methods” (Harbor BioSciencs, Inc., priority 2008, published 2010).

Assays:
[1] = test system: toll-like receptor 4 (TLR4) signaling; assay: LPS-induced proinflammatory signaling in macrophages (Western blot, qNPA array); assay type: cell-based, mouse
Description: Methods. LPS and recombinant TNFα were obtained from Sigma. Anti-SREBP2 was obtained from Abcam (Cambridge, Mass.). Other primary antibodies were purchased from Cell Signaling Technology (Danvers, Mass.) unless otherwise indicated. Murine primary macrophages were elicited by intraperitoneal injection of thioglycollate (3 mL/mouse) in C57BL/6J mice. Macrophages were obtained from intraperitoneal lavage and washed twice. Cells were cultured in RPMI supplemented with 10% fetal bovine serum (FBS) for 3 days and then starved in RPMI supplemented with 0.5% FBS for overnight before the treatment. RAW 264.7 cells and 3T3-L1 cells were cultured essentially as described elsewhere (T. Yoshizaki, et al. Molecular and Cellular Biology, 29:1363-1374, 2009).
Gene expression analyses used total RNA extracted from tissue with Purelink total RNA purification system (Invitrogen) following the manufacturer's protocol. Total RNA (2 μg) was reverse-transcribed using iScript cDNA Synthesis Kit (Bio-Rad Laboratories, Hercules, Calif.). Primer sequences used in the PCR reactions were chosen based on the sequences available in GenBank. Primer sequences are available upon request. PCR was carried out using iTaq SYBR Green supermix (Bio-Rad Laboratories, Hercules, Calif.) on an MJ Research Chromo4 Real Time PCR system (Bio-Rad Laboratories BV, Hercules, Calif.). […] For Quantitative Nuclease Protection Assay (qNPA), cells were lysed in lysis buffer after various treatments. The qNPA ArrayPlate assays were performed by High Throughput Genomics, Inc.
For Western blots, cells were serum starved and pretreated with DMSO or 17α-ethynylandrost-5-ene-3β,7β,17β-triol (100 nM) for overnight before LPS (100 ng/ml) or TNFα (10 ng/ml) stimulation for the indicated times, and then were lysed in radioimmunoprecipitation buffer containing protease inhibitor cocktail (Roche) and phosphatase inhibitor cocktail (Sigma). Total cell lysates were separated by 10% SDS-PAGE. The blots were incubated first with blocking buffer (Tris-buffered saline containing 0.05% Tween 20 and 5.5% nonfat milk) followed by primary antibodies in blocking buffer or Tris-buffered saline containing 2% BSA. The bound antibodies were detected by horseradish peroxidase-conjugated secondary antibodies (1:4000, v/v) in blocking buffer and visualized by enhanced chemiluminescence.

female NOD mice = assay: Spontaneous autoimmune diabetes in non-obese diabetic (NOD) mouse model; assay type: in vivo; conditions: for Insulitis Score/Islet (H&E) / β-Cell Score/Islet (Insulin): scale of 0 to 3
Excerpt: Treatment of spontaneous autoimmune diabetes in non-obese diabetic (NOD) mouse model. The NOD model is used as an animal model for human type 1 diabetes. The NOD mouse strain spontaneously develops autoimmune (type 1) diabetes by a process that has similarities to human type 1 diabetes mellitus, e.g., immune-mediated selective destruction of the pancreatic islet 13-cells that produce insulin (M. A. Atkinson and N. K. Maclaren, New England J. Medicine, 331:1428-1436 1994). There is a higher incidence of diabetes (i.e., hyperglycemia, glucosuria, and hypoinsulinemia) in female vs. male NOD mice (80-90% vs. 10-20%, respectively). Disease incidence in this animal model is first observed at approximately 12 to 15 weeks of age with maximum incidence usually peaking 5 to 6 weeks later.
Methods. An oral formulation containing 17α-ethynylandrost-5-ene-3β,7β,17β-triol in 30% w/v β-cyclodextrin sulfobutyl ether sodium salt (Captisol®; CyDex, Inc., Overland Park, Kans.) was used. Six-week old female NOD mice (approximately 20-25 grams) were purchased from The Jackson Laboratories (Bar Harbor, Me.) and housed in a vivarium under pathogen-free conditions. The animals were acclimated for at least one week prior to initiation of oral dosing with 17α-ethynylandrost-5-ene-3β,7β,17β-triol. Animals were randomized into 5 per cage upon receipt and cages were subsequently randomized into dosing groups.
Female NOD mice were treated once daily with vehicle, 17α-ethynylandrost-5-ene-3β,7β,17β-triol (20 or 80 mg/kg in 100 μL, p.o.), or dexamethasone (0.25 mg/kg, 100 μL, i.p.) from 15 to 25 weeks of age (i.e., before the first incidence of diabetes; at the University of Catania), from 13 to 19 weeks of age (2 days after the first incidence of diabetes), or from 12 to 26 weeks of age (9 days after the first incidence of diabetes). Blood glucose was monitored using glucometers (ENCORE Glucometer, Bayer Corp., Elkhart, Ind.) at weekly intervals, beginning at 10 weeks of age. Mice with blood glucose levels 200 mg/dL on two consecutive occasions were considered diabetic. The percentage of animals with diabetes over the course of the experiment was monitored.
Histological assessment of insulitis and functional 13-cell content was assessed at the time of disease diagnosis or at the end of the 26-week study (i.e., disease-free mice). Pancreata (after CO2 euthanasia) were immediately isolated and placed in 10% buffered formalin at room temperature overnight, and then embedded in paraffin. After de-paraffinizing, pancreas samples were rehydrated and 5 μm sections were prepared and fixed on glass slides. Some sections were stained with hematoxylin and eosin (H&E) while others were stained with anti-insulin antibody as follows; prepared sections were immersed in Tris-Buffered Saline (TBS: 10 mM Tris buffer, pH 7.4, 0.15 M NaCl) containing 1% of bovine serum albumin (BSA) and 5% normal goat serum for 2 h at room temperature followed by incubation with 2 μg/mL rat anti-insulin IgG2a monoclonal antibody (MAB1417; R&D Systems, Minneapolis, Minn.) in TBS/1% BSA overnight at 4° C. in a humidified chamber. After washing with TBS/0.5 Tween-20, sections were covered with biotinylated anti-rat IgG secondary antibody (BD biosciences, 1:1,000) for 1 h at room temperature, followed by washing with TBS/Tween-20 and incubation with streptavidin-horseradish peroxidase for 30 min. Sections were then incubated with chromogen substrate, DAB (BD Biosciences), for 5 min and counterstained with hematoxylin. The degree of insulitis (leukocyte infiltration per islet; H&E) and functional 13-cell content per islet (insulin production) was scored using a scale of 0 to 3 in which 0=none, 1=few, 2=moderate, 3=high content of inflammatory cells or functional β-cells. Pancreata that were scored were obtained from a randomly-selected portion of mice from each cohort and scores were reported as the mean±SEM for each cohort.

[2] = pretreatment 100 nM overnight, LPS 100 ng/ml, p<0.05

C#C[C@]1(O)CC[C@H]2[C@@H]3[C@@H](O)C=C4C[C@@H](O)CC[C@]4(C)[C@H]3CC[C@@]21C [17α-ethynylandrost-5-ene-3β,7β,17β-triol]
LPS-induced activation of ERK [1, 2]: partially, but significantly, blocked
LPS-induced activation of IKK [1, 2]: partially, but significantly, blocked
LPS-induced activation of JNK [1, 2]: partially, but significantly, blocked
LPS-induced activation of p38 [1, 2]: partially, but significantly, blocked
IκB phosphorylation and degradation ([1]; pretreatment 100 nM, LPS): not influenced
NFκB phosphorylation ([1]; pretreatment 100 nM, LPS): reduced
LPS-induced transcription of Cxcl1 ([1]; qNPA array): significantly reduced
LPS-induced transcription of Cxcl10 ([1]; qNPA array): significantly reduced
LPS-induced transcription of IL-1β ([1]; qNPA array): significantly reduced
LPS-induced transcription of IL-6 ([1]; qNPA array): significantly reduced
LPS-induced transcription of IL-12 ([1]; qNPA array): significantly reduced
LPS-induced transcription of Nos2 ([1]; qNPA array): significantly reduced
LPS-induced transcription of TNFα ([1]; qNPA array): significantly reduced
Disease Incidence (female NOD mice; 20 mg/kg p.o. once daily): 0.78 ± 0.15
No. Islets/pancreas (H&E) (female NOD mice; 20 mg/kg p.o. once daily): 2.4 ± 0.9
Insulitis Score/Islet (H&E) (female NOD mice; 20 mg/kg p.o. once daily): 2.5 ± 0.3
β-Cell Score/Islet (Insulin) (female NOD mice; 20 mg/kg p.o. once daily): 1.5 ± 0.4
effect on disease incidence (female NOD mice; 20 mg/kg, differs from 80 mg/kg, p=0.009 Fischer's Exact test): ineffective
Disease Incidence (female NOD mice; 80 mg/kg p.o. once daily): 0.17 ± 0.17
No. Islets/pancreas (H&E) (female NOD mice; 80 mg/kg p.o. once daily): 8.0 ± 3.1
Insulitis Score/Islet (H&E) (female NOD mice; 80 mg/kg p.o. once daily): 0.8 ± 0.4
β-Cell Score/Islet (Insulin) (female NOD mice; 80 mg/kg p.o. once daily): 2.6 ± 0.4
progressive increase in disease incidence (female NOD mice; 80 mg/kg single daily oral doses started 2 days or 9 days after first incidence of diabetes): suppressed
disease incidence relative to vehicle, meta-analysis across all studies (female NOD mice; 80 mg/kg, p=0.007 Fischer's Exact test): significant decrease
mean±SEM body weights (female NOD mice; Week 25, 20 mg/kg): 24.6 ± 0.8 g
mean±SEM body weights (female NOD mice; Week 25, 80 mg/kg): 24.7 ± 0.3 g
first incidence of diabetes (female NOD mice; week 19, once daily treatment from 15 to 25 weeks of age (vehicle 25%)): 8%
mean±SEM body weights (female NOD mice; week 31, end of study): 24.3 ± 0.6 g
maximum disease incidence during treatment (female NOD mice; weeks 23 through 25 (vehicle 66%), p<0.05 Chi-Squared test): 25%
